Results on one compound are retold here after patent US20120295935A1, “MIXED AMINAL PHARMACEUTICAL COMPOSITIONS AND USES THEREOF” (priority 2010, published 2012).

Entries after “also recorded” stand apart in the source; their conditions may differ.

The subject of assay [1] is MC3T3 cells. Nature of the assay: mRNA expression levels by real-time PCR. In kind it is cell-based, mouse. The procedure: Responses to Administration of Thapsigargin—Upregulation of transcription factors linked to bone formation as well as PERK: The effects of 10 nM thapsigargin on mRNA expression levels of ISR-linked genes (ATF4, ATF3, and CHOP) as well as genes involved in bone remodeling (Runx2, Osterix, and Rank1), were examined (FIG. 5). […] Out of 4 transcription factors (ATF4, ATF3, Runx2, and Osterix), the level of ATF4 mRNA was elevated 2-4 fold throughout the treatments. […] The mRNA level of type 1 collagen was elevated 5 h and 10 h for T1h (1 h exposure at 10 nM).
Responses to Administration of Salubrinal—In vitro responses to salubrinal: In order to evaluate the effects of salubrinal, MC3T3 E1 osteoblast-like cells and MLO-A5 osteocyte cells (Barragan-Adjemian, C., et al., “Mechanism by which MLO-A5 late osteoblasts/early osteocytes mineralize in culture: similarities with mineralization of lamellar bone,” Calcif. Tissue Int. 79:340-353 (2006)) were incubated with salubrinal at 100 nM-50 μM for 1-24 h. The mRNA levels of the selected genes, TF4, ATF3, Osteocalcin (OCN), and CHOP, were determined by real-time PCR. […] In MC3T3 cells, for instance, the Osteocalcin mRNA level, which is regulated by ATF4 and Runx2 (Xiao et al. 2005), was elevated 11.8±0.2 fold at 10 μM salubrinal in 24 h.
For orientation: Quantitative PCR measures a nucleic acid by following its amplification.

Assay [2] relates to MC3T3 E1 osteoblast-like cells. Nature of the assay: Western blot of eIF2α-p, ATF4, CHOP and caspase 3 proteins in response to thapsigargin. In kind it is cell-based, mouse. The procedure: At higher doses of 10 and 100 nM, the levels of eIF2α-p and ATF4 proteins were elevated (FIG. 3A). Thapsigarin is known to induce apoptosis when administered above a threshold concentration.
(In general: In western blotting, separated proteins are transferred to a membrane and probed.)

The test system of assay [3] is MC3T3 cells. Kind of assay: Cell proliferation and death. In kind it is cell-based. As to conditions: 1 h incubation with 10 nM (mild ER stress).
Assay [4] concerns MC3T3 cells. Nature of the assay: mRNA expression levels by real-time PCR. In kind it is cell-based, mouse. The settings on record: 1-100 nM for 1-24 h.
Assay [5] concerns MC3T3 cells. Nature of the assay: Phosphorylation of eIF2α kinases (PERK, PKR) and MAP kinases (p-38 MAPK, ERK1/2). In kind it is cell-based, mouse. The settings on record: 10 nM, 1 h exposure. How it is done: In response to T1h (1 h exposure at 10 nM), the level of phosphorylation of two eIF2α kinases (PERK and PKR), and two MAP kinases (p-38 MAPK and ERK1/2) was examined (FIG. 6).

As for `C/C=C(/C)C(=O)O[C@H]1C(C)=C2[C@H]([C@@H]1OC(=O)CCCCCCC)[C@@](C)(OC(C)=O)C[C@H](OC(=O)CCC)[C@@]1(O)[C@H]2OC(=O)[C@@]1(C)O` [thapsigargin], in assay [1] (10 nM), the “ATF3 mRNA level” value is 100-1000 times; the “CHOP mRNA level” value is reported as 10-35 fold; the “Osterix mRNA” value is “enhanced at 1 h”; the “Runx2 mRNA increase” value was “started at 3 h and peaked at 5 h”. Further, in assay [1] (10 nM, 1, 2 and 3 h exposures), the “ATF4 mRNA level” value is recorded as 2-4 fold. In assay [1] (3 h for T2h and 10 h for T3h, 10 nM), the “Rank1 mRNA” value is listed as “significantly up”. In addition, in assay [1] (5 h and 10 h for T1h (1 h exposure at 10 nM)), the “type 1 collagen mRNA level” value is on record as “elevated”. In assay [2] (10 nM), the CHOP protein level entry is on record as “started to increase after 3 h”, the “Pro-caspase 3 level” value is listed as “not significantly altered” and the “cleaved caspase 3 (active form) level” value is “increased after 24 h”. In addition, in assay [2] (10 and 100 nM), the ATF4 protein level entry is recorded as “elevated” and the eIF2α-p protein level result was “elevated”. Moreover, in assay [2] (lower dosages below 0.1 nM), the ATF4 protein level entry was “no detectable upregulation” and the eIF2α-p protein level result is “no detectable upregulation”. Moreover, in assay [3], the “numbers of live and dead cells (cell number or mortality)” value is recorded as “does not alter; also recorded: no significant difference”. Moreover, in assay [4], the “Osteocalcin mRNA level” value is listed as “did not increase”. Also, in assay [5], the p-ERK1/2 level result is “not altered; also recorded: unchanged”, the p-PERK level result is reported as “elevated; also recorded: Activation”, the p-PKR level entry is given as “not altered; also recorded: unchanged” and the “p-p38 MAPK level” value was “elevated; also recorded: Activation”.
